From article PMC7686382, “Bioassay-based Corchorus capsularis L. leaf-derived β-sitosterol exerts antileishmanial effects against Leishmania donovani by targeting trypanothione reductase” (Scientific Reports, 2020)

Molecular target: T1, Leishmania donovani trypanothione reductase (LdTryR) (Leishmania donovani, UniProt P39050)
T1 construct: gene TPR; recombinant LdTryR
Assay: spectrophotometric NADPH oxidation assay ([…] nm) on recombinant enzyme, Lineweaver-Burk kinetics
Format: biochemical

T1 sequence (P39050 whole entry): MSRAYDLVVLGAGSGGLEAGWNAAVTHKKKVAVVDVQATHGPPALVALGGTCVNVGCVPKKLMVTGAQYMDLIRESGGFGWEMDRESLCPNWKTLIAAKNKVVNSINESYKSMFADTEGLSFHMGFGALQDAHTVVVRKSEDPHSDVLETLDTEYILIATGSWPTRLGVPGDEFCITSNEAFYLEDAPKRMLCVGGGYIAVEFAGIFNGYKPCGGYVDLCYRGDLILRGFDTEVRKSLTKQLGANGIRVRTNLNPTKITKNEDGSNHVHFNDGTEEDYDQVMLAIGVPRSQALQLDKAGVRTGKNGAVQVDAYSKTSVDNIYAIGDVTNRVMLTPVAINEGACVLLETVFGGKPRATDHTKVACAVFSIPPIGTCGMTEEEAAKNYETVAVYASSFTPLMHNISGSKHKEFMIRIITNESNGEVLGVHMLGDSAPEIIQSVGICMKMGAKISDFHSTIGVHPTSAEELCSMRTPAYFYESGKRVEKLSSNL

Compound: CC[C@H](CC[C@@H](C)[C@H]1CC[C@H]2[C@@H]3CC=C4C[C@@H](O)CC[C@]4(C)[C@H]3CC[C@]12C)C(C)C [β-sitosterolCCL, β-sitosterol]
- Ki: 8.43 µM
